{
  "source": "patent US5608075A",
  "about": "(priority 1995, dated 1997)",
  "key": {"[1]": {"test_system": "pressor response to AII", "experiment": "Inhibition of the pressor response to AII in conscious dogs", "type": "in vivo, dog", "experimental": "(§1) The hypotensive effects of 2-butyl-4-chloro-1-[2'-(1H-tetrazol-5-yl)biphenyl-4-yl)methyl]-5-hydroxymethylimidazole sodium salt were compared before and after furosemide administration to conscious dogs. […] Plasma renin activity (PRA) in these animals was 1.5±0.5 ng AI/ml/hr. Four days later, furosemide was given to three of these dogs at 10 mg/kg im at 18 and 2 hours before the experiment and increased PRA to 19.9±7.2 ng AI/ml/hr. […] Thus a combined therapy of these two classes of drugs will be likely to increase the response rate to therapy among hypertensive patients."}, "[2]": {"test_system": "blood pressure in conscious dogs", "experiment": "Hypotensive effects in conscious dogs before and after furosemide", "type": "in vivo, dog", "conditions": "cumulative iv 0.3 to 3 mg/kg", "experimental": "as §1"}, "[3]": {"type": "physicochemical", "conditions": "25° C., overnight equilibration", "text": "From these facts it was concluded that the minor endotherm corresponds to an enantiotropic polymorphic transition. The major endotherm is the melting of the high-temperature form. The low-temperature stable polymorph (up to the transition temperature) is designated Form I and the high-temperature stable polymorph is designated Form II. […] Form I is the solid modification consistently obtained by solvent isolation. This was confirmed by recrystallizing the drug substance under varying conditions and analyzing by XRPD. Form II has been obtained only from DSC or related high temperature experiments."}, "[4]": {"experiment": "Solubility studies in nonaqueous solvents at 25° C.", "type": "physicochemical", "conditions": "overnight equilibration; for solubility: organic solvent or mixture, isopropyl acetate"}, "[5]": {"test_system": "AT1 receptor", "conditions": "cited from earlier work"}, "[6]": {"test_system": "blood pressure in renal hypertensive rats", "experiment": "Antihypertensive effects in renal hypertensive rats (left renal artery ligation)", "type": "in vivo, rat", "experimental": "This procedure increases blood pressure by increasing renin production with consequent elevation of AII levels. Compounds are administered orally at 100 mg/kg and/or intravenously via a cannula in the jugular vein at 10 mg/kg. Arterial blood pressure is continuously measured directly through a carotid artery cannula and recorded using a pressure transducer and a polygraph. Blood pressure levels after treatment are compared to pretreatment levels to determine the antihypertensive effects of the compounds (See Table 6)."}, "[7]": {"test_system": "renal vasoconstrictor effect of indomethacin and meclofenamate", "conditions": "dogs; cited from earlier work"}, "[8]": {"test_system": "arterial pressure", "conditions": "cited from earlier work"}, "[9]": {"test_system": "AII", "conditions": "cited from earlier work"}, "[10]": {"test_system": "renal vasoconstrictor effect of indomethacin", "conditions": "dogs with non-hypotensive hemorrhage; cited from earlier work"}, "[11]": {"test_system": "plasma renin", "experiment": "Plasma renin activity (PRA) in conscious dogs", "type": "in vivo, dog", "conditions": "furosemide 10 mg/kg im at 18 and 2 hours before the experiment, three dogs; PRA before furosemide 1.5±0.5", "experimental": "as §1"}},
  "note": "Counter-ions that a name gives are not always drawn.",
  "data": [
    {"smiles": "CCCCc1nc(Cl)c(CO)n1Cc1ccc(-c2ccccc2-c2nn[nH]n2)cc1", "note": "[2-butyl-4-chloro-1-[2'-(1H-tetrazol-5-yl)biphenyl-4-yl)methyl]-5-hydroxymethylimidazole sodium salt]", "values": [
      {"measurement": "inhibition of the pressor response to AII", "setting": "[1]; cumulative iv 0.3 to 3 mg/kg, AII 0.1 μg/kg iv, 10 min post dose, before furosemide", "value": "effective in inhibiting the pressor response to AII"},
      {"measurement": "inhibition of the pressor response to AII after furosemide", "setting": "[1]; cumulative iv, furosemide-treated dogs", "value": "inhibited the pressor response to AII at the two higher doses"},
      {"measurement": "decrease in blood pressure after furosemide", "setting": "[2]; furosemide-treated dogs", "value": "significant decrease in blood pressure in a dose-dependent manner"},
      {"measurement": "blood pressure lowering in normotensive conscious dogs", "setting": "[2]; n=4, before furosemide", "value": "did not lower blood pressure"}
    ]},
    {"smiles": "CCCCc1nc(Cl)c(CO)n1Cc1ccc(-c2ccccc2-c2nnn[nH]2)cc1.[K]", "note": "[Form I, 2-n-butyl-4-chloro-1-[(2'-(tetrazol-5-yl)-1,1'-biphenyl-4-yl)-methyl]-1H-imidazole-5-methanol potassium salt]", "values": [
      {"measurement": "polymorph conversion in isopropyl acetate", "setting": "[3]", "value": "no conversion of either Form was observed"},
      {"measurement": "solubility in ethyl acetate", "setting": "[4]; ethyl acetate", "value": "~ 0.3 mg/g"},
      {"measurement": "solubility in isopropanol", "setting": "[4]; isopropanol", "value": "~ 35 mg/g"},
      {"measurement": "solubility in methyl ethyl ketone", "setting": "[4]; methyl ethyl ketone", "value": "~ 1 mg/g"},
      {"measurement": "solubility", "setting": "[4]", "value": 18, "unit": "µg/mL"}
    ]},
    {"smiles": "CCCCc1nc(Cl)c(CO)n1Cc1ccc(-c2ccccc2-c2nn[nH]n2)cc1", "note": "[Form II, 2-n-butyl-4-chloro-1-[(2'-(tetrazol-5-yl)-1,1'-biphenyl]-1H-imidazole-5-methanolpotassium salt]", "values": [
      {"measurement": "polymorph conversion in isopropanol, methyl ethyl ketone and ethyl acetate", "setting": "[3]", "value": "converts to Form I after overnight equilibration"},
      {"measurement": "polymorph conversion in isopropyl acetate", "setting": "[3]", "value": "no conversion of either Form was observed"},
      {"measurement": "solubility", "setting": "[4]", "value": 41, "unit": "µg/mL"}
    ]},
    {"smiles": "CCCCc1nc(Cl)c(CO)n1Cc1ccc(-c2ccccc2-c2nn[nH]n2)cc1", "note": "[Losartan, 2-butyl-4-chloro-1-[(2'-tetrazol-5-yl)-biphenyl-4-yl]methyl]-5-(hydroxymethyl)imidazole potassium salt]", "values": [
      {"measurement": "AII antagonist activity, oral", "setting": "[5]", "value": "orally active AII antagonists"},
      {"measurement": "Antihypertensive Effects in Renal Hypertensive Rats, Intravenous Activity", "setting": "[6]; intravenous, 10 mg/kg", "value": "+ (Significant decrease in blood pressure at 10 mg/kg or less)"},
      {"measurement": "Antihypertensive Effects in Renal Hypertensive Rats, Oral Activity", "setting": "[6]; oral, 100 mg/kg", "value": "+ (Significant decrease in blood pressure at 100 mg/kg or less)"}
    ]},
    {"smiles": "CNCC(=O)N[C@@H](CCCN=C(N)N)C(=O)N[C@H](C(=O)N[C@@H](Cc1ccc(O)cc1)C(=O)N[C@H](C(=O)N[C@@H](Cc1cnc[nH]1)C(=O)N1CCC[C@H]1C(=O)N[C@@H](C)C(=O)O)C(C)C)C(C)C", "note": "[Saralasin, [Sar^1, Ala^8] AII]", "values": [
      {"measurement": "inhibition of renal vasoconstrictor effect of indomethacin and meclofenamate", "setting": "[7]", "value": "inhibit the renal vasoconstrictor effect of indomethacin and meclofenamate in dogs"},
      {"measurement": "oral effectiveness", "setting": "[8]; oral doses", "value": "oral doses being ineffective"},
      {"measurement": "duration of pharmacological effects", "setting": "[8]; parenteral administration", "value": "relatively short-lasting"},
      {"measurement": "lowering of arterial pressure", "setting": "[8]; when the (elevated) pressure is dependent on circulating AII", "value": "lower arterial pressure in mammals and man"},
      {"measurement": "pressor effects (agonistic character)", "setting": "[8]; when the pressure is not sustained by AII", "value": "generally elicits pressor effects when the pressure is not sustained by AII"},
      {"measurement": "block of effects of AII on the blood pressure", "setting": "[9]; pithed rats", "value": "blocks the effects of AII on the blood pressure of pithed rats"},
      {"measurement": "competitive antagonism of the actions of AII", "setting": "[9]; rat, in vivo", "value": "one of the most potent competitive antagonists of the actions of AII"}
    ]},
    {"smiles": "C[C@H](CS)C(=O)N1CCC[C@H]1C(=O)O", "note": "[captopril]", "values": [
      {"measurement": "reversal of renal vasoconstrictor effect of indomethacin", "setting": "[10]", "value": "reverse the renal vasoconstrictor effect of indomethacin in dogs"}
    ]},
    {"smiles": "NS(=O)(=O)c1cc(C(=O)O)c(NCc2ccco2)cc1Cl", "note": "[furosemide]", "values": [
      {"measurement": "plasma renin activity (PRA) after furosemide", "setting": "[11]", "value": "19.9±7.2", "unit": "ng AI/ml/hr"}
    ]}
  ]
}
